# Legend:
# SUDHL6 = experiment: Compound 1 with dexamethasone, CellTiter-Glo viability 72 h, combination index; format: cell-based; conditions: combination with Compound 1; SUDHL6 cells; CellTiter-Glo 72 h; FIG. 12
# Experimental: (§1) The effects of Compound 1 with dexamethasone were examined in a panel of cell lines. Cells were cultured and assayed as follows. Compound 1 was serially diluted with cell culture medium and various DMSO concentrations. The top concentration of Compound 1 exposed to cells was 3 uM for cell lines other than WSU-NHL and DOHH2. For WSU-NHL and DOHH2 cell lines, the top concentration of Compound 1 exposed to the cells was 0.3 uM. Dexamethasone was serially diluted in culture media and phosphate buffered saline (PBS). The top concentration of dexamethasone used on cells was 3 uM. Cells were at least 73% viable and were counted and diluted for plating at a density of about 92,000 cell/mL, 130 uL cells per well in 96 well plates for SUDHL6, Karpas 422, SUDHL4, WSU-NHL, RL, and DOHH2 cell lines. The SUDHL10 cell line was plated at a density of about 46,000 cells/mL, 130 uL cells per well in 96 well plates.
# (§2) Various concentrations of Compound 1 and various combinations of dexamethasone were added to various wells of cells. Single agents (Compound 1 or dexamethasone alone) were also added to some wells of cells. Cells were incubated with compounds for 72 hours. To assay for effects of the compounds on cell viability, a CellTiter-Glo® luminescent cell viability assay (commercially available) was used. To each plate of cells, 100 uL CellTiter-Glo reagent was added, incubated, and luminescence quantified using a […].
# The result for cell line SUDHL6 is depicted in FIG. 12 and in Table 12. […] Table 12 depicts combination index (CI) values for different combinations of dexamethasone/Compound 1 concentrations.
# KARPAS-422 = experiment: Combination study, ATPLite 72 h, dose matrix (Synergy Score, CI50); conditions: combination with Compound 1, 72 h
# DOHH2 = experiment: Compound 1 with dexamethasone, CellTiter-Glo viability 72 h, combination index; format: cell-based; conditions: combination with Compound 1; DOHH2 cells; CellTiter-Glo 72 h; FIG. 11
# Experimental: as §1, §2
# The results for cell line DOHH2 are depicted in FIG. 11 and Table 11. […] Table 11 depicts combination index (CI) values for different combinations of dexamethasone/Compound 1 concentrations.
# OCI-Ly7 = experiment: Combination study, ATPLite 72 h, dose matrix (Synergy Score, CI50); conditions: combination with Compound 1, 72 h
# DOHH-2 = experiment: as above; conditions: combination with Compound 1, 72 h
# SU-DHL-4-epst = experiment: as above; conditions: combination with Compound 1, 72 h
# WSU-NHL = experiment: as above; conditions: combination with Compound 1, 72 h
# Experimental: Cells are thawed from a liquid nitrogen preserved state. Once cells have been expanded and divide at their expected doubling times, screening begins. Cells are seeded in growth media in either black 1536-well or 384-well tissue culture treated plates. Cells are then equilibrated in assay plates via centrifugation and placed in incubators attached to the Dosing Modules at 37° C. for 24 hours before treatment. […] These Tzero (To) plates are read using ultra-sensitive luminescence on Envision plate readers (Perkin Elmer). Treated assay plates are incubated with compound for 72 hours. After 72 hours, plates are developed for endpoint analysis using ATPLite. All data points are collected via automated processes, quality controlled and analyzed using Zalicus software.
# where T is treated cell count and V is untreated (vehicle) cell count (at 72 hours). I ranges from 0% (when T=V) to 100% (when T=0). […] The measure of effect in the experiment can be the inhibition of cellular response relative to the untreated level (vehicle alone). […] The inhibition ranges from 0% at the untreated level to 100% when T=0. Inhibition levels are negative for agents that actually increase levels. Other effect measures, such as an activity ratio r=T/V may be more appropriate for some assays. When activity ratios (e.g, fold increase over stimulated control) are being used, the effect can be measured using an induction 1=ln(T/V). With this definition, all effect expressions are the same as for inhibition.
# Growth Inhibition (GI) is used as a measure of cell viability. […] A GI reading of 100% represents complete growth inhibition—T72 compound-treated and T0 vehicle signals are matched. […] A GI reading of 200% represents complete death of all cells in the culture well. Compounds reaching an activity plateau of GI 200% are considered cytotoxic. GI is calculated by applying the following test and equation:
# Combination analysis data were collected in a 6×6 dose matrix. Synergy is calculated by comparing a combination's response to those of its single compound, against the drug-with-itself dose-additive reference model. Deviations from dose additivity may be assessed visually on an isobologram or numerically with a Combination Index (CI). […] Additive effect is CI=1.0. […] Antagonistic effect is CI>1.0.
# To measure combination effects in excess of Loewe additivity, a scalar measure to characterize the strength of synergistic interaction termed the Synergy Score is devised. The Synergy Score is calculated as:
# The fractional inhibition for each component agent and combination point in the matrix is calculated relative to the median of all vehicle-treated control wells. The Synergy Score equation integrates the experimentally-observed activity volume at each point in the matrix in excess of a model surface numerically derived from the activity of the component agents using the Loewe model for additivity. Additional terms in the Synergy Score equation (above) are used to normalize for various dilution factors used for individual agents and to allow for comparison of synergy scores across an entire experiment. The inclusion of positive inhibition gating or an Idata multiplier removes noise near the zero effect level, and biases results for synergistic interactions at that occur at high activity levels.
# Loewe Volume (Loewe Vol) is used to assess the overall magnitude of the combination interaction in excess of the Loewe additivity model. Loewe Volume is particularly useful when distinguishing synergistic increases in a phenotypic activity (positive Loewe Volume) versus synergistic antagonisms (negative Loewe Volume). […] This model defines additivity as a non-synergistic combination interaction where the combination dose matrix surface should be indistinguishable from either drug crossed with itself.
compound,measurement,setting,value
"C[C@@H]1C[C@H]2[C@@H]3CCC4=CC(=O)C=C[C@]4(C)[C@@]3(F)[C@@H](O)C[C@]2(C)[C@@]1(O)C(=O)CO [dexamethasone, (8S,9R,10S,11S,13S,14S,16R,17R)-9-Fluoro-11,17-dihydroxy-17-(2-hydroxyacetyl)-10,13,16-trimethyl-6,7,8,9,10,11,12,13,14,15,16,17-dodecahydro-3H-cyclopenta[a]phenanthren-3-one]",synergy of the combination,SUDHL6,synergy
same,CI50 growth inhibition,KARPAS-422,U (U=0.7 to <1)
same,CI50 inhibition,KARPAS-422,U (U=0.7 to <1)
same,Synergy Score growth inhibition,KARPAS-422,A3 (A3=>3)
same,Synergy Score inhibition,KARPAS-422,A3 (A3=>3)
same,synergy of the combination,DOHH2,synergy
same,CI50 growth inhibition,OCI-Ly7,S (S=0.01 to <0.5)
same,CI50 inhibition,OCI-Ly7,S (S=0.01 to <0.5)
same,Synergy Score growth inhibition,OCI-Ly7,A3 (A3=>3)
same,Synergy Score inhibition,OCI-Ly7,A3 (A3=>3)
same,CI50 growth inhibition,DOHH-2,S (S=0.01 to <0.5)
same,CI50 inhibition,DOHH-2,T (T=0.5 to <0.7)
same,Synergy Score growth inhibition,DOHH-2,A3 (A3=>3)
same,Synergy Score inhibition,DOHH-2,A3 (A3=>3)
same,CI50 growth inhibition,SU-DHL-4-epst,T (T=0.5 to <0.7)
same,CI50 inhibition,SU-DHL-4-epst,T (T=0.5 to <0.7)
same,Synergy Score growth inhibition,SU-DHL-4-epst,A3 (A3=>3)
same,Synergy Score inhibition,SU-DHL-4-epst,A3 (A3=>3)
same,CI50 inhibition,WSU-NHL,T (T=0.5 to <0.7)
same,Synergy Score growth inhibition,WSU-NHL,A3 (A3=>3)
same,Synergy Score inhibition,WSU-NHL,A3 (A3=>3)
